Source: publication PMC12177571, “Glycosidase-activated prodrugs of a cytotoxic iron chelator for targeted cancer therapy” (RSC Medicinal Chemistry, 2025)

Legend:
A549 cells = experiment: MTT cell viability assay, A549 cells; format: cell-based; conditions: Homo sapiens, 72 h incubation, mean and SD of three independent experiments, read-out: IC50 against A549
Experimental: (§1) Next, the cytotoxicity of the prodrugs was assessed in the human lung cancer (A549) and human ovarian cancer (OvCar-3) cell lines: overexpressing β-glucosidase, and, overexpressing both β-glucosidase and β-galactosidase, respectively.[40,41] For this, a standard MTT assay was employed to generate the proliferation profiles (cf. ESI ^† Fig. S1–S5) and allowed us to calculate the IC50 values for each compound. GM5756 fibroblast cells were included as non-cancerous control.
(§2) Cell culture. Ovcar-3 cells were maintained in RPMI-1640 medium (Invitrogen), A549 cells were maintained in high glucose (4.5 g/L) Dulbecco’s Modified Eagle’s medium (Invitrogen. Alle employed culture media were supplemented with 10% fetal bovine serum (Gibco), 2% penicillin/streptomycin (Sigma Aldrich), 1%GlutaMAX™-I (100x, Gibco), and 1% sodium pyruvate (100 mM, Gibco).
(§3) Cells were kept under a humidified atmosphere of 10% CO2 and 90% air at 37°C. Cells were split when they reached 90% confluency. All employed cell lines were sourced from the German Collection of Microorganisms and Cell Cultures (Leibnitz Institute, DSMZ).
(§4) Cell viability studies and MTT assays. Cells were harvested and plated on a 96-well plate in 100 µL growth medium at a density of 1500 cells per well. The cells were left to grow for 24 h at 37°C under a humidified atmosphere with 10% CO2. The next day, 100 µL of growth medium containing appropriate concentrations of the investigated compound were added to each well. As a control, the first row of wells was treated with 100 µL medium containing only the vehicle (1% DMSO); all wells contained a final concentration of 0.5% DMSO for the duration of the treatment. After incubation with the compound for 72 h, 50 µL of MTT solution (2.5 mg/mL 3-(4,5-dimethylthiazol-2-yl)-2,5-diphenyltetrazolium bromide dye in PBS buffer) was added to each well. After an additional incubation for 2 h, the supernatant was aspired off and 200 µL of DMSO was added to each well to solubilize the precipitated formazan dye. The produced formazan dye was quantified by measuring the optical density of the solution at 550 nm with a Tecan Infinite M Nano+ plate reader. A baseline correction was performed by subtracting a reference absorbance at 620 nm for each well. From the mean of the corrected absorbances for each set of equivalent wells, a dose-response curve was produced, which was then normalized to the wells containing untreated cells to allow for plate-to-plate comparison. The resulting dose-response curves were subjected to non-linear regression analysis performed in Microsoft Excel (version 16.64) to determine IC50 via the Hill-Langmuir model. Data is shown as the mean of three replicate experiments and error bars represent the standard deviation at each datum point.

OvCar-3 cells = experiment: MTT cell viability assay, OvCar-3 cells; format: cell-based; conditions: Homo sapiens, 72 h incubation, mean and SD of three independent experiments, read-out: IC50 against OvCar-3
Experimental: as §1, §2, §3, §4

GM5756 fibroblast cells = experiment: MTT cell viability assay, GM5756 fibroblast cells (non-cancerous control); format: cell-based; conditions: 72 h incubation, mean and SD of three independent experiments, read-out: IC50 against GM5756
Experimental: as §1, §2, §3, §4

[1] = Fe(III) binding study by UV-vis spectroscopy; conditions: 30 μM compound, excess FeCl3 (50 μM), methanol
Experimental: With the prodrugs in hand, binding studies were carried out using UV-vis spectroscopy; this was done to confirm the Fe(III) binding ability of all new compounds. […] To evaluate whether 2a, 2b, 3a, and 3b were chelating Fe(III), each prodrug was similarly dissolved in a solution containing excess FeCl3.
Fig. 2 UV-vis absorption spectra for prodrugs 2a/b and 3a/b as well as 1 at a concentration of 30 μM with an excess of FeCl3 as Fe(III) source (50 μM) in methanol.
UV-vis spectra were recorded in methanol containing the indicated ligand or prodrug at a concentration of 30 µM and as appropriate Fe(III) at a concentration of 50 µM. A stock solution of FeCl3 in DMSO was used as source of Fe(III) and ligands were added from a […] stock solution in DMSO. All samples contained a final concentration of <0.2% DMSO.
Figure S7: UV-vis absorption spectra of 1, Fe(III), and 1 + Fe(III). The graph for 1 + Fe(III) (Numerically) was constructed by numerically adding the respective signals of Fe(III) and 1 to show what graph could be expected if the two species were in the same solution without interacting.
Figure S8: UV-vis absorption spectra of 2a, Fe(III), and 2a + Fe(III). The graph for 2a + Fe(III) (Numerically) was constructed by numerically adding the respective signals of Fe(III) and 2a to show what graph could be expected if the two species were in the same solution without interacting. […]

[2] = Stability in PBS without enzyme (HPLC control group); format: physicochemical; conditions: 100 μM in PBS, no enzyme, 37°C, up to 48 h
Experimental: Additional selectivity control experiments were conducted, in which either no enzyme or an “incorrect” enzyme such as an esterase was used (see Fig. S13–S24 in the ESI ^†).
The three following enzymes were employed in this study:
(1) esterase from porcine liver sourced from Sigma Aldrich as dry powder with an activity of 229.4 units/mg protein as indicated by the supplier for the received lot; (2) β-glucosidase from almonds sourced from Sigma Aldrich as dry powder with an activity of 11.7 U/mg as indicated by the supplier for the received lot
(3) β-galactosidase from e.coli overproducer sourced from Roche as prepared aqueous solution with an activity of 1500 units/mL protein as indicated by the supplier for the […]
As indicated for each experiment below, the respective enzyme was dissolved in PBS buffer and diluted as appropriate to produce the desired concentration.
25 mM stock solutions in DMSO were prepared for 2a, 2b, 3a, and 3b. From these stock solutions, 4 µL was added to 1 mL of PBS buffer, respectively, in separate glass vials, achieving a final concentration of 100 µM. […]
In the control group, no enzyme was introduced. […] Aliquots were extracted from each vial after 24 and 48 hours, respectively, and analyzed as described below.
The extracted aliquots were analyzed via high-performance liquid chromatography (HPLC) with ultraviolet (UV) detection at a wavelength of 254 nm. […]

| SMILES | IC50 (A549 cells) | IC50 (OvCar-3 cells) | IC50 (GM5756 fibroblast cells) | Absorbance at 510 nm (Fe(III) chelation band) [1] | Stability in PBS / aqueous media [2] |
| --- | --- | --- | --- | --- | --- |
| OC[C@H]1OC(Oc2ccccc2-c2nc(-c3ccccc3O)nn2-c2ccccc2)[C@H](O)[C@@H](O)[C@@H]1O (stereo partly drawn) [2b] | > 100 µM | 76.5 ± 0.8 µM | > 100 µM | no relevant absorbance at 510 nm | good stability in aqueous media |
| OC[C@H]1OC(Oc2ccccc2-c2nc(-c3ccccc3O)nn2-c2ccccc2)[C@H](O)[C@@H](O)[C@H]1O (stereo partly drawn) [2a] | 74.4 ± 14.1 µM | 67.6 ± 13 µM | > 100 µM | no relevant absorbance at 510 nm | good stability in aqueous media |
| OC[C@H]1OC(Oc2ccc(COc3ccccc3-c3nc(-c4ccccc4O)nn3-c3ccccc3)cc2)[C@H](O)[C@@H](O)[C@@H]1O (stereo partly drawn) [3b] | 7.4 ± 1.5 µM | 3.7 ± 0.3 µM | 15.3 ± 2.3 µM | no relevant absorbance at 510 nm | – |
| OC[C@H]1OC(Oc2ccc(COc3ccccc3-c3nc(-c4ccccc4O)nn3-c3ccccc3)cc2)[C@H](O)[C@@H](O)[C@H]1O (stereo partly drawn) [3a] | 44.1 ± 2.4 µM | 9.1 ± 1.6 µM | > 100 µM | no relevant absorbance at 510 nm | – |
